Reference: publication PMC3612826, “Structural-Functional Analysis of 2,1,3-Benzoxadiazoles and Their N-oxides As HIV-1 Integrase Inhibitors” (Acta Naturae, 2013)

How the values were obtained:
wild-type HIV-1 IN = wild-type HIV-1 IN (Human immunodeficiency virus type 1 group M subtype B, UniProt P12497); assay: biochemical; assay type: biochemical
recombinant HIV-1 IN = recombinant HIV-1 IN (Human immunodeficiency virus type 1 group M subtype B, UniProt P12497); assay: biochemical; assay type: biochemical

Row | SMILES | IC50 (wild-type HIV-1 IN) [µM] | Inhibitory potential, strand transfer (wild-type HIV-1 IN) | IC50 (recombinant HIV-1 IN) [µM] | Inhibitory potential, 3'-processing (recombinant HIV-1 IN)
1 | [O-][n+]1onc2ccccc21 [Compound 1, unsubstituted BFX] | > 1000 | exhibited no inhibitory potential | > 1000 | exhibited no inhibitory potential
2 | O=[N+]([O-])c1cc([N+](=O)[O-])c2no[n+]([O-])c2c1-[n+]1ccccc1 [Compound 24] | 80 ± 20 |  | 75 ± 15 | 
